Assay results from patent US12623942B2, “Method for extracting salts and temperature- regenerated extracting composition” (ADIONICS, priority 2016, dated 2026).

Tests used:
[1] = Liquid-liquid extraction of mono-salt saline solution; details: 0.1M CEM + 3.52M ASM2 in CH2Cl2; initial salt 0.1 mol/L; Org./Water = 1; molar %
Text: The extracting composition is obtained by solubilizing an amount of CEM and ASM in the selected fluidizing agent, dichloromethane CH2Cl2, dichlorobenzene or dichlorotoluene or any other fluidizing agent able to well solubilize the mixture CEM/ASM in order to obtain the searched final concentrations after solubilizing CEMs and ASMs in a minimum of 3 milliliters of fluidizing agent. If the selected fluidizing agent is also an ASM compound, so the selected ASM volume is at least 3 milliliters. The given concentrations of ASM2 and ASM9 are related to the added fluidizing agent volume and the concentrations of CEM are related to the added fluidizing agent+ASM volume. The extracting organic composition is then lightly heated so as to promote the solubilization of the organic compounds by means of a heat gun (temperature around 50 to 60° C.) for a few seconds (10 to 30 seconds) until a clear solution is obtained. The composition is thus left for 24 hours at room temperature so as to make sure that the obtained formulation is stable.
These sealed formulations are then orbitally stirred at 500 revolutions/minute for two hours after adding an equivalent volume of water which was distilled twice so as to allow a water saturation of the whole formulation and a pH control at the inlet and at the outlet (pH close to 7, or at least maintained after contact with the saturation water).
3 mL of the prepared extracting organic composition are then taken from the lower phase of the decanted diphasic mixture and transferred to a vial containing 3 mL of the water containing the one or more considered chloride salts (NaCl or others), then the vial is sealed and orbitally stirred (at 500 revolutions per minute) for 2 hours at room temperature (RT), that is to say between 20 and 25° C.
A verification is made to make sure that droplets in the range of 1-2 mm are really present during these stirrings in order to be sure that an equilibrium in the distribution of the considered chloride salt (NaCl or other) is achieved between both liquid phases at the end of stirring. The aspect of the organic and aqueous phases is clear and colorless or slightly turbid.
Once the 2-hour stirring is carried out, the stirring is stopped and the whole is left for decantation for about 10 minutes, at least until both phases are completely separated, at the temperature of the assay. Then, the upper aqueous phase is taken then stirred and diluted in order to analyze its salinity by a ion chromatography (a Metrohm™ device including a cation analyzing column and an anion analyzing column suitable for the ions and for the concentration of the salts which are searched for). Likewise, the chloride salt (NaCl or other) initial aqueous solution is also analyzed by this ion chromatography to determine its cation and chloride molar relative concentration before the extraction. All the extractions and analyses were duplicated.
The considered extracting composition comprises 0.1 mol/L of CEM1 and 3.52 mol/L of ASM2 in dichloromethane CH2Cl2, which was obtained as described above. The initial concentration of the considered salt in water, whether it is LiCl, NaCl, KCl, MgCl2, CaCl2, SrCl2 or BaCl2, is 0.1 mol/L.
After carrying out these 7 specific extractions (duplicated) of salts, the amounts of extracted cations in relative molar percentage before and after extraction at room temperature and at water/extracting formulation iso-volume are indicated in table I: […]

[2] = Extraction of salts from a brine, four extraction steps; details: 0.4M CEM1 + 1.2M ASM9 in 12ClPh; for Salinity progression at RT, Ca / Salinity progression at RT, Cl / Salinity progression at RT, K / Salinity progression at RT, Mg / Salinity progression at RT, Na: Org./Water 3, brine 180 g/Liter
Text: (§1) The extracting composition is as follows: 0.4 Mol/L of CEM1 (cf example 1, of CAS #: 114155-16-7), completed with 1.2 Mol/L of ASM9 of formula: […]
(§2) The brine is a water having a high salinity, at 180 g/Liter (that is to say 5.6 Mol/L), composed of sodium, potassium, calcium, magnesium and chloride ions in the proportions of table II below. The saline water to be treated was contacted with a triple relative volume of this extracting composition in order to get close to the operating conditions.
(§3) It is shown in table II below the concentrations, in mMol/L of water, of each of the ions before and after each of the four extraction steps, carried out at room temperature (RT).

[3] = Complexing constant Log K in methanol at 25° C.; format: binding
Protocol: K is the complexing constant of a CEM and a […] cation in methanol, at 25° C., which is measured according to the standard method of isothermal calorimetric titration.

[4] = Selective extraction from a binary mixture NaCl/CaCl2; details: 0.1 mol/L CEM + 2.4 mol/L ASM9 in 1,2-dichlorobenzene; brine 0.05 mol/L NaCl and CaCl2 each; RT; molar %
Text: A brine containing an equimolar mixture of salts, 0.05 mol/L of NaCl and CaCl2 each, which was made as described above, was contacted with two extracting compositions, one of which according to the invention.
Each extracting composition comprises 0.1 mol/L of CEM
[drawing 53] and 2.4 mol/L of ASM9 in 1,2-dichlorobenzene.
A brine containing a mixture of NaCl and CaCl2 is made as described above to obtain the following initial saline concentrations in a mixture: 0.2 Mol/L of NaCl and 0.03 Mol/L of CaCl2. The extracting resin, is composed of 0.1 Mol/L of CEM2, 3.52 Mol/L of ASM2 and a complement of liquid ASM1, which is also used as a fluidizing agent.

[5] = Extraction of salts from a brine, four extraction steps, total salinity; details: 0.4M CEM1 + 1.2M ASM9 in 12ClPh; for Salinity progression at RT, Total: Org./Water 3, brine 180 g/Liter
Text: as §1, §2, §3

[6] = after Extract 4, expressed in g/Liter

Log K(Ba^++, MeOH, 25° C.) [3]: 7.2
Log K(Ca^++, MeOH, 25° C.) [3]: > 9.0
Log K(Cs^+, MeOH, 25° C.) [3]: 2.5
Log K(K^+, MeOH, 25° C.) [3]: 5.8
Log K(Li^+, MeOH, 25° C.) [3]: 4.0
Log K(Mg^++, MeOH, 25° C.) [3]: < 1.2
Log K(Na^+, MeOH, 25° C.) [3]: 7.9
Log K(Rb^+, MeOH, 25° C.) [3]: 3.8
Log K(Sr^++, MeOH, 25° C.) [3]: > 9.0
Structure (SMILES): CCN(CC)C(=O)COc1c2cc(C(C)(C)C)cc1Cc1cc(C(C)(C)C)cc(c1OCC(=O)N(CC)CC)Cc1cc(C(C)(C)C)cc(c1OCC(=O)N(CC)CC)Cc1cc(C(C)(C)C)cc(c1OCC(=O)N(CC)CC)C2 [CEM1, 4-tert-butyl-Calix[4]arene tetrakis(N,N-diethylacetamide)]
Extraction rate at room temperature (RT), BaCl2 [1]: 46.1%
Extraction rate at room temperature (RT), CaCl2 [1]: 59.4%
Extraction rate at room temperature (RT), KCl [1]: 75.8%
Extraction rate at room temperature (RT), LiCl [1]: 73.7%
Extraction rate at room temperature (RT), MgCl2 [1]: 5.4%
Extraction rate at room temperature (RT), NaCl [1]: 85.8%
Extraction rate at room temperature (RT), SrCl2 [1]: 64.0%
Salinity progression at RT, Ca ([2]; after Extract 1): 495 mmol/L
Salinity progression at RT, Cl ([2]; after Extract 1): 2703 mmol/L
Salinity progression at RT, K ([2]; after Extract 1): 22.5 mmol/L
Salinity progression at RT, Mg ([2]; after Extract 1): 83.4 mmol/L
Salinity progression at RT, Na ([2]; after Extract 1): 1162 mmol/L
Salinity progression at RT, Ca ([2]; after Extract 2): 492 mmol/L
Salinity progression at RT, Cl ([2]; after Extract 2): 2292 mmol/L
Salinity progression at RT, K ([2]; after Extract 2): 23.4 mmol/L
Salinity progression at RT, Mg ([2]; after Extract 2): 86.4 mmol/L
Salinity progression at RT, Na ([2]; after Extract 2): 429 mmol/L
Salinity progression at RT, Ca ([2]; after Extract 3): 360 mmol/L
Salinity progression at RT, Cl ([2]; after Extract 3): 1083 mmol/L
Salinity progression at RT, K ([2]; after Extract 3): 13.9 mmol/L
Salinity progression at RT, Mg ([2]; after Extract 3): 87.6 mmol/L
Salinity progression at RT, Na ([2]; after Extract 3): 8.54 mmol/L
Salinity progression at RT, Ca ([2]; after Extract 4): 114 mmol/L
Salinity progression at RT, Cl ([2]; after Extract 4): 469 mmol/L
Salinity progression at RT, K ([2]; after Extract 4): 3.65 mmol/L
Salinity progression at RT, Mg ([2]; after Extract 4): 94.2 mmol/L
Salinity progression at RT, Na ([2]; after Extract 4): 3.70 mmol/L
Equivalent4, Ca [2, 6]: 4.57 g/L
Equivalent4, Cl [2, 6]: 16.62 g/L
Equivalent4, K [2, 6]: 0.14 g/L
Equivalent4, Mg [2, 6]: 2.29 g/L
Equivalent4, Na [2, 6]: 0.09 g/L
% E Ca^++ [4]: 10.0%
% E Na^+ [4]: 88.0%
Salinity progression at RT, Total ([5]; after Extract 1): 4466 mmol/L
Salinity progression at RT, Total ([5]; after Extract 2): 3322 mmol/L
Salinity progression at RT, Total ([5]; after Extract 3): 1553 mmol/L
Salinity progression at RT, Total ([5]; after Extract 4): 685 mmol/L
Equivalent4, Total [5, 6]: 23.70 g/L
